Data taken from PMC12010937, “Evaluation of FXR Activity in Pollutants Identified in Sewage Sludge and Subsequent in Vitro and in Vivo Characterization of Metabolic Effects of Triphenyl Phosphate” (Environmental Health Perspectives, 2025).
Several values for one entry are separate records, joined by “and”; a condition that tells them apart may be missing. Equal values may be shown once. Entries after “also recorded” stand apart in the source; their conditions may differ.

Columns and labels:
[1] = molecular target: T1, FXR (pCDNA3.1-hFXR, FXRE-luc) (Homo sapiens, UniProt Q96RI1); assay: cell-based; assay type: cell-based
T1 construct: host or cells: HEK 293T
T1 sequence (Q96RI1 1-486): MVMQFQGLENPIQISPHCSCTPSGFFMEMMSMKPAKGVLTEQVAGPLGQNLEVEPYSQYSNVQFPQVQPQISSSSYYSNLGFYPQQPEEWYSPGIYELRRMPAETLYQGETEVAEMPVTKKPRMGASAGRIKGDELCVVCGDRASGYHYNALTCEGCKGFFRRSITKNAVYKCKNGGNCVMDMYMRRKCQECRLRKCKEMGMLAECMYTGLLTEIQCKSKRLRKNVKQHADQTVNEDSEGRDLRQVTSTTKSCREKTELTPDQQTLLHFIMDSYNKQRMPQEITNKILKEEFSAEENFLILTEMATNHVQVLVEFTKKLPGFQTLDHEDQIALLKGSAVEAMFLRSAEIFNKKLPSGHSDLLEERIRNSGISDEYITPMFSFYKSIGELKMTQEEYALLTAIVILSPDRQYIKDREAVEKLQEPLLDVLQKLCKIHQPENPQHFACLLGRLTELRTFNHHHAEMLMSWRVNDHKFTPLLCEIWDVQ

[2] = tested on: FXR target genes (SHP, NTCP, CYP7A1) in HepG2 cells; assay: qPCR of FXR target genes in HepG2 cells; assay type: cell-based, human
[3] = Body weight during exposure; assay type: in vivo, C57BL/6N mice; conditions: for Relative body weight / Body weight: individual mice
Experimental: Male C57BL/6N mice (8 wk of age) were purchased from Beijing Vital River Laboratory Inc. and acclimated to the environment for 2 wk before they were used for experiments. The environment was maintained at 22°C, in a 12-h light/dark cycle with 50%–60% relative humidity and fed standard chow diets. Because the male mice are more sensitive to metabolic disease than female mice and the estrous cycle of female mice may induce variability to the metabolic phenotypes,[50] only male mice were used in this study. Animals were randomly assigned to control or TPHP treatment groups (five mice per group). Mice were exposed to corn oil (control) purchased from Sigma-Aldrich (C8267) or TPHP (dissolved in corn oil) at 10mg/kg or 50mg/kg body weight (BW) by daily oral gavage for 35 d. The administered volume was 5mL/kg BW. The TPHP corn oil solutions for administration were prepared by dissolving the TPHP in corn oil, and the solutions were stored at −20°C and freshly prepared each week. BW was measured every other day during the dosing period. At the end of experiments, the mice were anesthetized with isoflurane, then blood was collected from the retro-orbital sinus via orbital puncture, and then the mice were euthanized by cervical dislocation. The liver was isolated, weighted, and divided into three fractions: one fraction was fixed with 4% neutral-buffered formalin for Oil Red staining; another fraction was frozen in liquid nitrogen and stored at −80°C for the BA targeted analysis, lipidomic analysis, and qPCR analysis; the remaining fraction was embedded with 3% carboxymethylcellulose (CMC) for MSI analysis. The ileum was also isolated, weighted, and stored at −80°C for the BA targeted analysis and qRT-PCR analysis. Cecal contents were collected from the cecum of mice for the 16S rRNA gene sequencing analysis. Animal study protocols were approved by the Animal Care and Use Committee of Peking University (approval number: Urban-WanY-1).

[4] = 10 μM TPHP + 50 μM CDCA, replicates

O=P(Oc1ccccc1)(Oc1ccccc1)Oc1ccccc1 [TPHP, triphenyl phosphate]
IC50 [1]: 27.4 µM | Relative luciferase activity (%) ([1]; 0.01 μM, dose-response, replicates): 85.51% and 90.10% and 106.89% | Relative luciferase activity (%) ([1]; 0.1 μM, dose-response, replicates): 104.74% and 89.81% | Relative luciferase activity (%) ([1]; 0.5 μM, dose-response, replicates): 73.91% and 74.66% | Relative luciferase activity (%) ([1]; 1 μM, dose-response, replicates): 77.48% and 70.96% | Relative luciferase activity (%) ([1]; 5 μM, dose-response, replicates): 51.88% and 54.98% and 76.88% | Luciferase activity compared with DMSO control (in words) ([1]; 10 μM and 25 μM, in the presence of 50 μM CDCA, HEK 293T): significantly less luciferase activity; also recorded: lowest luciferase activity | Relative luciferase activity (%) ([1]; 10 μM compound in the presence of 50 μM CDCA, DMSO 0%, 50 μM CDCA 100%, HEK 293T, replicates): 2.5% and 7.4% and 17.9% | Relative luciferase activity (%) ([1]; 10 μM, dose-response, replicates): 46.34% and 52.21% | Relative luciferase activity (%) ([1]; 25 μM compound in the presence of 50 μM CDCA, DMSO 0%, 50 μM CDCA 100%, HEK 293T, replicates): -6.4% and -7.6% and -3.9% | Relative luciferase activity (%) ([1]; 25 μM, dose-response, replicates): 2.58% and 9.91% and 5.01% | Relative luciferase activity (%) ([1]; 50 μM, dose-response, replicates): -21.44% and -22.90% and -18.55% | Rate of FXR inhibition at the maximum exposure concentration ([1]; HEK 293T DLR assay, maximum exposure concentration): 120.96% | activity at 0.1 µM ([1]; HEK-293T, read-out: Relative luciferase activity (%), 0.1 μM, dose-response, replicates): 87.5% | activity at 0.5 µM ([1]; HEK-293T, read-out: Relative luciferase activity (%), 0.5 μM, dose-response, replicates): 82.3% | activity at 1 µM ([1]; HEK-293T, read-out: Relative luciferase activity (%), 1 μM, dose-response, replicates): 63.9% | activity at 10 µM ([1]; HEK-293T, read-out: Relative luciferase activity (%), 10 μM, dose-response, replicates): 39.7% | Effect on CDCA-induced expression changes of FXR target genes (SHP, NTCP, CYP7A1), in words [2]: attenuated the CDCA-induced expression changes | Relative mRNA expression level of CYP7A1 [2, 4]: 1.85 fold changes and 1.10 fold changes and 1.48 fold changes | Relative mRNA expression level of NTCP [2, 4]: 1.11 fold changes and 0.92 fold changes and 0.94 fold changes | Relative mRNA expression level of SHP [2, 4]: 1.02 fold changes and 1.19 fold changes and 1.08 fold changes | Body weight vs control group (in words) ([3]; TPHP-L and TPHP-H groups, last week of 35 d exposure): significantly high BW | Relative body weight ([3]; day0, TPHP-H group): 100% | Relative body weight ([3]; day0, TPHP-L group): 100% | Relative body weight ([3]; day2, TPHP-H group): 100.00% and 95.33% and 100.77% and 93.99% and 94.87% | Relative body weight ([3]; day2, TPHP-L group): 100.70% and 96.31% and 97.06% and 97.18% and 97.32% | Relative body weight ([3]; day4, TPHP-H group): 97.19% and 93.33% and 101.54% and 92.93% and 92.67% | Relative body weight ([3]; day4, TPHP-L group): 97.89% and 93.62% and 95.96% and 97.58% and 94.25% | Relative body weight ([3]; day6, TPHP-H group): 97.59% and 92.00% and 101.92% and 90.46% and 91.58% | Relative body weight ([3]; day6, TPHP-L group): 98.24% and 94.30% and 94.12% and 97.18% and 94.25% | Relative body weight ([3]; day8, TPHP-H group): 98.39% and 93.00% and 103.85% and 92.23% and 93.41% | Relative body weight ([3]; day8, TPHP-L group): 98.59% and 94.30% and 95.59% and 96.37% and 95.40% | Relative body weight ([3]; day10, TPHP-H group): 98.39% and 92.67% (2×) and 103.85% and 90.46% | Relative body weight ([3]; day10, TPHP-L group): 98.24% and 94.30% and 95.59% and 95.97% and 94.25% | Body weight ([3]; day12, TPHP-H group): 24.8 g and 28.9 g and 27.4 g and 26.1 g (2×) | Relative body weight ([3]; day12, TPHP-H group): 99.60% and 96.33% and 105.38% and 92.23% and 95.60% | Body weight ([3]; day12, TPHP-L group): 28.0 g and 28.2 g and 26.3 g and 24.2 g and 24.9 g | Relative body weight ([3]; day12, TPHP-L group): 98.59% and 94.63% and 96.69% and 97.58% and 95.40% | Body weight ([3]; day14, TPHP-H group): 24.9 g and 29.3 g and 27.7 g and 25.9 g and 26.3 g | Relative body weight ([3]; day14, TPHP-H group): 100.00% and 97.67% and 106.54% and 91.52% and 96.34% | Body weight ([3]; day14, TPHP-L group): 28.7 g and 28.5 g and 26.4 g and 23.8 g and 25.1 g | Relative body weight ([3]; day14, TPHP-L group): 101.06% and 95.64% and 97.06% and 95.97% and 96.17% | Body weight ([3]; day16, TPHP-H group): 25.2 g and 29.6 g and 28.2 g and 26.6 g and 26.7 g | Relative body weight ([3]; day16, TPHP-H group): 101.20% and 98.67% and 108.46% and 93.99% and 97.80% | Body weight ([3]; day16, TPHP-L group): 28.9 g (2×) and 27.2 g and 24.0 g and 25.4 g | Relative body weight ([3]; day16, TPHP-L group): 101.76% and 96.98% and 100.00% and 96.77% and 97.32% | Body weight ([3]; day18, TPHP-H group): 25.6 g and 30.6 g and 28.3 g and 26.9 g and 27.4 g | Relative body weight ([3]; day18, TPHP-H group): 102.81% and 102.00% and 108.85% and 95.05% and 100.37% | Body weight ([3]; day18, TPHP-L group): 29.0 g and 29.3 g and 27.4 g and 24.4 g and 25.6 g | Relative body weight ([3]; day18, TPHP-L group): 102.11% and 98.32% and 100.74% and 98.39% and 98.08% | Body weight ([3]; day20, TPHP-H group): 25.6 g and 30.4 g and 28.2 g and 27.6 g (2×) | Body weight ([3]; day20, TPHP-L group): 29.6 g and 30.1 g and 27.7 g and 25.0 g and 26.0 g | Body weight ([3]; day22, TPHP-H group): 25.7 g and 30.4 g and 27.7 g and 27.6 g and 28.0 g | Body weight ([3]; day22, TPHP-L group): 29.5 g and 29.1 g and 27.8 g and 25.2 g and 26.1 g | Body weight ([3]; day24, TPHP-H group): 26.2 g and 30.9 g and 27.9 g and 28.0 g and 28.4 g | Body weight ([3]; day24, TPHP-L group): 29.9 g and 30.1 g and 28.1 g and 25.1 g and 26.4 g | Body weight ([3]; day26, TPHP-H group): 26.8 g and 31.6 g and 28.0 g and 27.8 g and 28.5 g | Body weight ([3]; day26, TPHP-L group): 30.2 g and 31.0 g and 28.7 g and 25.9 g and 26.7 g | Body weight ([3]; day28, TPHP-H group): 27.0 g and 31.6 g and 27.9 g and 28.1 g and 28.9 g | Body weight ([3]; day28, TPHP-L group): 30.1 g and 31.3 g and 28.7 g and 25.4 g and 26.8 g | Body weight ([3]; day30, TPHP-H group): 27.3 g and 32.3 g and 28.7 g and 28.3 g and 29.8 g | Body weight ([3]; day30, TPHP-L group): 29.9 g and 31.6 g and 29.4 g and 26.2 g and 27.1 g
